Assay [1] has as its target T1, Histone deacetylase (Rattus norvegicus) (UniProt Q6P6W3+Q99P99+Q99P96+Q4QQW4+Q99P97+Q5RJZ2+B1WBY8). To be noted: at 10 µM.
Description: Inhibition of rat liver HDAC at 10 uM pre-incubated for 15 mins before Boc-Lys(Ac)-AMC substrate addition and measured after 30 mins by fluorometry
Assay [2] addresses T1, Histone deacetylase (Rattus norvegicus). To be noted: at 0.1 µM.
Description: Inhibition of rat liver HDAC at 0.1 uM pre-incubated for 15 mins before Boc-Lys(Ac)-AMC substrate addition and measured after 30 mins by fluorometry
A further assay deals with Histone deacetylase 9 (Homo sapiens, UniProt Q9UKV0). The assay is described as follows: Inhibition of human HDAC9 pre-incubated for 30 mins before substrate addition and measured after 30 mins by HDAC-Glo I/II assay.
Another assay has as its target Histone deacetylase 4 (Homo sapiens, UniProt P56524). The assay is described as follows: Inhibition of human HDAC4 pre-incubated for 30 mins before substrate addition and measured after 30 mins by HDAC-Glo I/II assay.
In the next assay the target is Histone deacetylase 3 (Homo sapiens, UniProt O15379). Description: Inhibition of human HDAC3 pre-incubated for 30 mins before substrate addition and measured after 30 mins by HDAC-Glo I/II assay.
The next assay deals with Histone deacetylase 1 (Homo sapiens, UniProt Q13547). Description: Inhibition of human HDAC1 pre-incubated for 30 mins before substrate addition and measured after 30 mins by HDAC-Glo I/II assay.
The next assay addresses Histone deacetylase 2 (Homo sapiens, UniProt Q92769). Description: Inhibition of human HDAC2 pre-incubated for 30 mins before substrate addition and measured after 30 mins by HDAC-Glo I/II assay.
A further assay addresses T2, Histone deacetylase 8 (Homo sapiens, UniProt Q9BY41).
T2 sequence (Q9BY41 whole entry): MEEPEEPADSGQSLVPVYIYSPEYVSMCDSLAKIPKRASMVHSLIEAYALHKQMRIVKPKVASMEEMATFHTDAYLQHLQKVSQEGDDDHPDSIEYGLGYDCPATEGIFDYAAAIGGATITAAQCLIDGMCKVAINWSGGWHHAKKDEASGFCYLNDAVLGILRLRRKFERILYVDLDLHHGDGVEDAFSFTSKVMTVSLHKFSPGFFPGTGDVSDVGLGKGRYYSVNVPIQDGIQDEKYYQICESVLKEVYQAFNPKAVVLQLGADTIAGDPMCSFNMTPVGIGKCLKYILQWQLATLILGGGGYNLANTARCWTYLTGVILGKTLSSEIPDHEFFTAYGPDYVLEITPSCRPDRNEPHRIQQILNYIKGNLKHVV
The assay is described as follows: Inhibition of human HDAC8 pre-incubated for 30 mins before substrate addition and measured after 30 mins by HDAC-Glo I/II assay.

For assay [3], the target named is T3, Protein deacetylase HDAC6 (Homo sapiens, UniProt Q9UBN7).
T3 sequence (Q9UBN7 whole entry): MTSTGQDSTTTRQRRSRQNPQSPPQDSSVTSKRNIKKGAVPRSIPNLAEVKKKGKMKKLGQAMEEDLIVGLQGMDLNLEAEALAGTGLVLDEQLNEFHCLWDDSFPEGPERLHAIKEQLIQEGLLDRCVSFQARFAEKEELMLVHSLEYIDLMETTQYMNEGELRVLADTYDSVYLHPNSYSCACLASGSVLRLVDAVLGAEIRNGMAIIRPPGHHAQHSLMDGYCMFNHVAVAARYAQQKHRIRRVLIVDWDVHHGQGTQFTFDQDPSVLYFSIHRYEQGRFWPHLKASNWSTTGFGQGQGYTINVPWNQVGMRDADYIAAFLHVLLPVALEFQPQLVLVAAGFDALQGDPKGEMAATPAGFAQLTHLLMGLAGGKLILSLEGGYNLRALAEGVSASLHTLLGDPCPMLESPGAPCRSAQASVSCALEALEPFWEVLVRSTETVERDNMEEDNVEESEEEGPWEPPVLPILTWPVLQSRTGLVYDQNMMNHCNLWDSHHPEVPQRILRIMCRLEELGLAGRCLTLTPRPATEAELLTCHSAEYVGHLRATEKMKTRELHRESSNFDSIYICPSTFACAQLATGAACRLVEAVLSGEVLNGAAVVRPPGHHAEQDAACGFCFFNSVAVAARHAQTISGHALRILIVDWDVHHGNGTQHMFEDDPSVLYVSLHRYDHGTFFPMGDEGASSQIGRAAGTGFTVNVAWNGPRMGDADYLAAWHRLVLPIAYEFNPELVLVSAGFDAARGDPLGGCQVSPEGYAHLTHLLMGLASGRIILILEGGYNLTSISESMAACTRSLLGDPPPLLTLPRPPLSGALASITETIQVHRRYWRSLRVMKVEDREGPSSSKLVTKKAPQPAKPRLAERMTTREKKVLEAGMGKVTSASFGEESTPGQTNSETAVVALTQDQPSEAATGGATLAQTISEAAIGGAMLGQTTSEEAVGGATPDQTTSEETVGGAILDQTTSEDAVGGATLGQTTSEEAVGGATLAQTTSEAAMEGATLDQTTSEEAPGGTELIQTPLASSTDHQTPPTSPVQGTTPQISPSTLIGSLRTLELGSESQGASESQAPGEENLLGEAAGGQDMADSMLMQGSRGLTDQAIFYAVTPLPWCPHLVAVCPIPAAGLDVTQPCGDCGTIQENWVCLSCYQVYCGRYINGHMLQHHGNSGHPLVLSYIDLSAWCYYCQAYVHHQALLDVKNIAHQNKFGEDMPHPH
The assay is described as follows: Inhibition of human HDAC6 pre-incubated for 30 mins before substrate addition and measured after 30 mins by HDAC-Glo I/II assay.

Chain of Histone deacetylase 2 (Q92769 whole entry): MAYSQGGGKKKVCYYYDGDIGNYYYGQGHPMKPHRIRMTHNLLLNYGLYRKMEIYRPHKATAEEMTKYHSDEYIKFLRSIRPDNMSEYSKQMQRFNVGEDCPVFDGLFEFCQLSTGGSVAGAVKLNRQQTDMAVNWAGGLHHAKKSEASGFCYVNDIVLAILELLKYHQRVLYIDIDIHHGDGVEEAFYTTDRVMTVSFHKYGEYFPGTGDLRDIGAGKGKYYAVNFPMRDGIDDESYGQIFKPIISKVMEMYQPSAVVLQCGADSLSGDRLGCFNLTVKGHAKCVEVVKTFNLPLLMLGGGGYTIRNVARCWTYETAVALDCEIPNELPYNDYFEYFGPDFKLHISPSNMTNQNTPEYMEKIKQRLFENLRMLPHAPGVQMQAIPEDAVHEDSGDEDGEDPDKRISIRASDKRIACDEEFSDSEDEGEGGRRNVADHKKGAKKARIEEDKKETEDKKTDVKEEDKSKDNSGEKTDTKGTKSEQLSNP
Chain of Histone deacetylase 9 (Q9UKV0 whole entry): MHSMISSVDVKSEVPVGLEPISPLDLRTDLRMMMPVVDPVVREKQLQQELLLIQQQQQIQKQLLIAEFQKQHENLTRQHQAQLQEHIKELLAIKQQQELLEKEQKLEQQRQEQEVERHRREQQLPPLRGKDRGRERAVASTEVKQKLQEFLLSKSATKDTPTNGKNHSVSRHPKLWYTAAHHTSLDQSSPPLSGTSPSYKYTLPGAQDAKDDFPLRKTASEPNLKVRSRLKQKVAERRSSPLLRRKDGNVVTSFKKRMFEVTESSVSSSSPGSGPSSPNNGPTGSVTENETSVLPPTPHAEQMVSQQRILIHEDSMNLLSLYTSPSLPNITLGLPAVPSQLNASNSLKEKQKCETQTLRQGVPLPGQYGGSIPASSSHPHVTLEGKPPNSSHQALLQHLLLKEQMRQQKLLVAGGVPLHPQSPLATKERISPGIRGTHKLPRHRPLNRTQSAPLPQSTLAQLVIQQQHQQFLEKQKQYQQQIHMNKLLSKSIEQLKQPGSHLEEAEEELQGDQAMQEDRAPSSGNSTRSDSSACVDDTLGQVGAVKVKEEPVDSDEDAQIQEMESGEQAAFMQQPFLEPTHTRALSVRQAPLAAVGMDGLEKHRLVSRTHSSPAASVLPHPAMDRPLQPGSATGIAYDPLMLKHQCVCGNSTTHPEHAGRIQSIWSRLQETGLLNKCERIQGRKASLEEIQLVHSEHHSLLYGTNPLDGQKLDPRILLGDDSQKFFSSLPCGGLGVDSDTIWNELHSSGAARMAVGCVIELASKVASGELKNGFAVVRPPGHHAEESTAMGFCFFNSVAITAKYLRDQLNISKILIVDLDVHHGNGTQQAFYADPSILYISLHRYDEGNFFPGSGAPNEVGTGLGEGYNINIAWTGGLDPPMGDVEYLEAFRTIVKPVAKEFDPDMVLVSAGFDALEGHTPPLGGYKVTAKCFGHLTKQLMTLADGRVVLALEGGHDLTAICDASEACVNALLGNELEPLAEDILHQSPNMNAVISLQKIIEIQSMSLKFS
Chain of Histone deacetylase 1 (Q13547 whole entry): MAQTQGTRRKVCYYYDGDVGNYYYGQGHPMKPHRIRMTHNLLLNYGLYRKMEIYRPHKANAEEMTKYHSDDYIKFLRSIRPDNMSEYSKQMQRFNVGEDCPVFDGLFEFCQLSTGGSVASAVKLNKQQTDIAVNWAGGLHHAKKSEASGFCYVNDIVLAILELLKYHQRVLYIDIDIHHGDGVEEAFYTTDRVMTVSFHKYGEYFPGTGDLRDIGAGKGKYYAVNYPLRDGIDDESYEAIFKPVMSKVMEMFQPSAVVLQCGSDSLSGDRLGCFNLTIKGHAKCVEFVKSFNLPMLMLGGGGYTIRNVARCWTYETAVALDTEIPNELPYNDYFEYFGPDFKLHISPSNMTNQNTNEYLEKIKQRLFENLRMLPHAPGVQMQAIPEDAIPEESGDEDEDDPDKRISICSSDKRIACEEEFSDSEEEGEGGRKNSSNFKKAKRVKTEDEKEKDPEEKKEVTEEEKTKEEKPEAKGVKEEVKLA
Chain of Histone deacetylase 4 (P56524 whole entry): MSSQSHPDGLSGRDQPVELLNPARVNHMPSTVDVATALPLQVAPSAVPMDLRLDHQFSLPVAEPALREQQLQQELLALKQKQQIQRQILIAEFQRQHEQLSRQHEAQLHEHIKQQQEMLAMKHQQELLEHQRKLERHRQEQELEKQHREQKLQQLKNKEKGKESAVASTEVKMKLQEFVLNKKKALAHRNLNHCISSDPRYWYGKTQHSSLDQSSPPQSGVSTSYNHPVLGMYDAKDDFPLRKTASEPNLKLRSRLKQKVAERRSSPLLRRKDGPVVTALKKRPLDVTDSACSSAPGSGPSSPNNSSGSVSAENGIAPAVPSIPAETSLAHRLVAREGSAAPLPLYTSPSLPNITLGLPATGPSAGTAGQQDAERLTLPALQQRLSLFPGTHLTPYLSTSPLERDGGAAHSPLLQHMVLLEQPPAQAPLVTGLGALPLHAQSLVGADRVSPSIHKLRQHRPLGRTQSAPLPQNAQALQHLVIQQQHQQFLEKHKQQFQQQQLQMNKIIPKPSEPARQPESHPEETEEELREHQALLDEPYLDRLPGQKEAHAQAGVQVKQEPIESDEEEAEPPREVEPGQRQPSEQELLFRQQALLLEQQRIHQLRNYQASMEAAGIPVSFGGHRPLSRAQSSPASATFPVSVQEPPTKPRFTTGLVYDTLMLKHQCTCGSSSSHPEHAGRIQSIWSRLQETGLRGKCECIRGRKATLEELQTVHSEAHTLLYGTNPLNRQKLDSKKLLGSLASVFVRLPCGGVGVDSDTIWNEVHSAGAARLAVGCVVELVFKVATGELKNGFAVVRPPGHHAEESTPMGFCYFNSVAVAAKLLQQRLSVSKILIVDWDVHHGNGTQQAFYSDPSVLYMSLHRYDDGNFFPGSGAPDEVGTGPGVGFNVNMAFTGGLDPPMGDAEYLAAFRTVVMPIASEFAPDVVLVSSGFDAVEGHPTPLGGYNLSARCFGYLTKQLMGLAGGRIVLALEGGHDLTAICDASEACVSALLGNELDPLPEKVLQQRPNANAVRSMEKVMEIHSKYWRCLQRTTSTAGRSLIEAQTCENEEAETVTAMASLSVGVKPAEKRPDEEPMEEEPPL
Chain of Histone deacetylase 3 (O15379 whole entry): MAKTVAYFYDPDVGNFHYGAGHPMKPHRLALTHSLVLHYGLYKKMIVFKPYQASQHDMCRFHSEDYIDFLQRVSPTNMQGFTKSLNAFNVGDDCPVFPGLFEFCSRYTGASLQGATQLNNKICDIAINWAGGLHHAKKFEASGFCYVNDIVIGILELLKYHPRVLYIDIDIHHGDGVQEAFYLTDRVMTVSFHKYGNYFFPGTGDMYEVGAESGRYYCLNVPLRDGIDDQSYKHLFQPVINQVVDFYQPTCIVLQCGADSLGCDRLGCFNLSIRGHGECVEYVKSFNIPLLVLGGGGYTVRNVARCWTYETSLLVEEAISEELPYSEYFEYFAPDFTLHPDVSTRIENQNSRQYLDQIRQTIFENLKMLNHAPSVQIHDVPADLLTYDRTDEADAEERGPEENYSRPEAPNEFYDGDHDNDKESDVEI

On to `O=C(CCCCCOc1ccc2oc(=O)ccc2c1)NO`, for which the figures for the inhibition in [1] and in assay [2] were 91% and 12%, respectively.
The like results for `COC1=Nc2ccc(NC(=O)CCCCCCC(=O)NO)cc2C(C)(C)C1` were, in that order, 99% and 52%.
For the molecule `O=C(CCCCCCC(=O)Nc1ccc2[nH]c(=O)ccc2c1)NO`, the IC50 is 58 nM on Histone deacetylase 9; 63 nM at Histone deacetylase 4; 54 nM on Histone deacetylase 3; 35 nM on Histone deacetylase 1; 45 nM at Histone deacetylase 2; 48 nM against Histone deacetylase 8. The same molecule registered an IC50 in assay [3] of 66 nM. For the same molecule, the inhibition in [1] was 99%; in assay [2] it was 66%.
On to `O=C(CCCCCOc1cccc2c1CCC(=O)N2)NO`, for which the inhibition in assay [1] turned out to be 86%; in assay [2], 7%.
For `O=C(CCCCCCNC(=O)c1ccc2[nH]c(=O)ccc2c1)NO`, the IC50 on Histone deacetylase 9 turned out to be 46 nM; on Histone deacetylase 4, 280 nM; against Histone deacetylase 3 it was 180 nM; on Histone deacetylase 1, 24 nM; at Histone deacetylase 2, 25 nM; at Histone deacetylase 8, 73 nM. Moreover, in [3], the midpoint of inhibition, the IC50, lay at 280 nM. For the same molecule, the inhibition came out at 100% in assay [1] and 68% in [2].
On to `O=C(CCCCCOc1ccc2c(c1)NC(=O)CC2)NO`, for which the figures for the inhibition in assay [1] and in assay [2] were 91% and 13%, respectively.
As to `O=C(CCCCCC(=O)Nc1ccc2c(c1)CCC(=O)N2)NO`, the inhibition in [1] was found to be 95%; in assay [2], 24%.
For `O=C(CCCCCOc1ccc2c(c1)CCC(=O)N2)NO`, the inhibition came out at 91% in assay [1] and 13% in assay [2].
Turning to `CC1(C)CC(=O)Nc2ccc(C(=O)NCCCCCCC(=O)NO)cc21`, the IC50 is 39 nM on Histone deacetylase 9; 63 nM against Histone deacetylase 4; 69 nM against Histone deacetylase 3; 30 nM on Histone deacetylase 1; 93 nM on Histone deacetylase 2; 55 nM against Histone deacetylase 8. Moreover, it took 92 nM to reach half-maximal inhibition in assay [3] (IC50). Further, the values for the inhibition in assay [1] and in [2] were 98% and 44%, respectively.
As to `CC1(C)CC(=O)Nc2ccc(S(=O)(=O)NCCCCCCC(=O)NO)cc21`, the inhibition in assay [1] was 94%; in [2] it was 17%.
Consider `CC1(C)CC(=O)Nc2ccc(C(=O)NC[C@H]3CC[C@H](/C=C/C(=O)NO)CC3)cc21`, for which the IC50 at Histone deacetylase 9 was found to be 5.2 nM; against Histone deacetylase 4, 58 nM; against Histone deacetylase 3 it was 15 nM; at Histone deacetylase 1, 3.8 nM; against Histone deacetylase 2, 8.2 nM; against Histone deacetylase 8 it was 6 nM. In assay [3], this molecule yielded an IC50 of 58 nM. Further, the inhibition in assay [1] came to 98%; in [2], 55%.
`O=C(CCCCCCC(=O)Nc1ccc2c(c1)CCC(=O)N2)NO`: the IC50 against Histone deacetylase 9 came to 25 nM; on Histone deacetylase 4 it was 120 nM; against Histone deacetylase 3 it was 91 nM; on Histone deacetylase 1, 14 nM; against Histone deacetylase 2, 18 nM; against Histone deacetylase 8 it was 94 nM. In addition, in assay [3], the IC50 is 630 nM. Also, the inhibition in assay [1] was 98%; in assay [2] it was 51%.
Turning to `CC1(C)CC(=O)Nc2ccc(C(=O)NC[C@H]3CC[C@@H](/C=C/C(=O)NO)CC3)cc21`, the IC50 at Histone deacetylase 9 worked out at 91 nM; on Histone deacetylase 4 it was 750 nM; against Histone deacetylase 3, 370 nM; against Histone deacetylase 1 it was 190 nM; against Histone deacetylase 2 it was 310 nM; at Histone deacetylase 8 it was 21 nM. Also, the concentration for half-maximal inhibition (IC50) in assay [3] was 720 nM. Moreover, the inhibition is 92% in [1] and 22% in [2].
As for `O=C(CCCCCOc1cccc2c1NC(=O)CC2)NO`, the inhibition in [1] came out at 80%; in [2] it was 4%.
`CC1(C)CC(=O)Nc2c(F)cc(NC(=O)CCCCCCC(=O)NO)cc21`: the inhibition was determined as 99% in assay [1] and 49% in [2].
As to `O=C(CCCCCCNC(=O)c1ccc2c(c1)CCC(=O)N2)NO`, the IC50 at Histone deacetylase 9 came to 35 nM; at Histone deacetylase 4, 120 nM; against Histone deacetylase 3, 85 nM; against Histone deacetylase 1, 24 nM; on Histone deacetylase 2, 20 nM; at Histone deacetylase 8 it was 53 nM. For the same molecule, the IC50 in assay [3] is 430 nM. Besides, the inhibition in assay [1] stood at 98%; in assay [2] it was 45%.
For `O=C(CCCCCCNS(=O)(=O)c1ccc2c(c1)CCC(=O)N2)NO`, the inhibition in assay [1] stood at 94%; in assay [2], 15%.
On to `CC1(C)CC(=O)Nc2cc(C(=O)NCc3cccc(/C=C/C(=O)NO)c3)ccc21`, for which the inhibition in assay [1] turned out to be 96%; in [2] it was 27%.
Regarding `CCOC1=Nc2ccc(NC(=O)CCCCCCC(=O)NO)cc2C(C)(C)C1`, the inhibition came to 97% in assay [1] and 42% in assay [2].
For `O=C(CCCCCCCC(=O)Nc1ccc2c(c1)CCC(=O)N2)NO`, in that order: 97% and 30%.
Consider `CN1C(=O)CCc2cc(C(=O)NCCCCCCC(=O)NO)ccc21`, for which the figures for the inhibition in assay [1] and in assay [2] were 99% and 51%, respectively.
As to `CN1C(=O)CC(C)(C)c2cc(NC(=O)CCCCCCC(=O)NO)ccc21`, the inhibition in [1] was determined as 98%; in [2], 55%.
Consider `CC1(C)CC(=O)Nc2ccc(OCCCCCC(=O)NO)cc21`, for which the results for the inhibition in assay [1] and in [2] were 88% and 11%, respectively.
As for `O=C(CCCCCOc1cccc2ccc(=O)[nH]c12)NO`, the inhibition in [1] came to 86%; in [2], 7%.
Take `CC1(C)CC(=O)Nc2c(F)cc(C(=O)NCCCCCCC(=O)NO)cc21`: the values for the inhibition in [1] and in assay [2] were 99% and 57%, respectively.
For `O=C(CCCCCCNS(=O)(=O)c1ccc2[nH]c(=O)ccc2c1)NO`, in that order: 94% and 18%.
In the case of `O=C(CCCCCOc1ccc2[nH]c(=O)ccc2c1)NO`, the inhibition in assay [1] came to 94%; in assay [2], 19%.
The like results for `O=C(CCCCCCC(=O)Nc1ccc2oc(=O)ccc2c1)NO` were, in that order, 98% and 46%.
For `O=C(CCCCCNC(=O)c1ccc2c(c1)CCC(=O)N2)NO`, in that order: 94% and 21%.
`CC1(C)CC(=O)Nc2cc(C(=O)NCCCCCCC(=O)NO)ccc21`: the values for the inhibition in [1] and in assay [2] were 99% and 63%, respectively.
Turning to `O=C(CCCCCOc1ccc2ccc(=O)[nH]c2c1)NO`, the inhibition was 93% in [1] and 21% in assay [2].
In the case of `O=C(CCCCCCS(=O)(=O)Nc1ccc2c(c1)CCC(=O)N2)NO`, the figures for the inhibition in assay [1] and in [2] were 91% and 11%, respectively.
On to `O=C(CCCOc1ccc2c(c1)CCC(=O)N2)NO`, for which the inhibition in [1] stood at 65%; in [2], 9%.
As for `CC1(C)CC(=O)Nc2cc(OCCCCCC(=O)NO)ccc21`, the inhibition worked out at 91% in assay [1] and 11% in [2].
Take `O=C(CCCCCCCNC(=O)c1ccc2c(c1)CCC(=O)N2)NO`: the inhibition in assay [1] was found to be 98%; in assay [2], 40%.
